The target in data set [1] is T1, hERG K+ channel (Homo sapiens, UniProt Q12809).
T1 construct: expressed in transfected cells; host or cells: CHO (Chinese hamster ovary), CHOhERG
Briefly: hERG channel inhibition assay (patch-clamp, CHOhERG cells). The class given is cell-based. To be noted: for IC50 / IC20: CHOhERG cells, whole-cell patch-clamp; for IC20: human, CHO cells stably expressing hERG (CHOhERG); for hERG IC20/TLR7 IC50 / hERG IC20/TLR8 IC50 / hERG IC20/TLR9 IC50: safety ratio. On the procedure:
The hERG K^+ channels were cloned in humans and stably expressed in a CHO (Chinese hamster ovary) cell line. CHOhERG cells were used for patch-clamp (voltage-clamp, whole-cell) experiments. Cells were stimulated by a voltage pattern to activate hERG channels and conduct IKhERG currents (rapid delayed outward rectifier potassium current of the hERG channel). After the cells were stabilized for a few minutes, the amplitude and kinetics of IKhERG were recorded at a stimulation frequency of 0.1 Hz, (6 bpm). Thereafter, the test compound was added to the preparation at increasing concentrations. For each concentration, an attempt was made to reach a steady-state effect, usually, this was achieved within 3-10 min at which time the next highest concentration was applied. The amplitude and kinetics of IKhERG are recorded in each concentration of the drug which were compared to the control values (taken as 100%). (references: Redfern W S, Carlsson L, Davis A S, Lynch W G, MacKenzie I, Palethorpe S, Siegl P K, Strang I, Sullivan A T, Wallis R, Camm A J, Hammond T G. 2003; Relationships between preclinical cardiac electrophysiology, clinical QT interval prolongation and torsade de pointes for a broad range of drugs: evidence for a provisional safety margin in drug development. Cardiovasc. Res. 58:32-45, Sanguinetti MC, Tristani-Firouzi M. 2006; hERG potassium channels and cardiac arrhythmia. Nature 440:463-469, Webster R, Leishman D, Walker D. 2002; Towards a drug concentration effect relationship for QT prolongation and torsades de pointes. Curr. Opin. Drug Discov. Devel. 5:116-26).
(Block of hERG is tested as a sign of cardiac risk.)

In data set [2] the target is T2, CYP2D6 (Homo sapiens, UniProt P10635).
T2 construct: tissue BD-Gentest 452117; host or cells: human liver microsomes
Briefly: CYP inhibition assay in human liver microsome, CYP2D6. The class given is in vitro ADME. The conditions noted are these: percentage inhibition, substrate Dextromethorphan 5 μM. Here is the method:
(§1) This is a high throughput screening assay used for assessment of reversible inhibition of CYP2C9, CYP2D6, and CYP3A4 activity of test compounds in human liver microsome (HLM) in early discovery stage.
(§2) 10 mM DMSO stock solutions of test compounds were diluted in DMSO to generate 2 mM intermediate stock solution. 250 nL of intermediate stock solution were transferred in duplicate into 3 separate 384 well microtitre plates (assay-ready plates). A mixture of HLM and each substrate was made up. 45 μL of HLM substrate mix was then transferred to each well of an assay ready plate and mixed. The negative (solvent) and positive controls (standard inhibitor for each CYP) were included in each assay ready plate. The assay ready plate was warmed to 37° C. in an incubator over 10 minutes. 5 μL pre-warmed NADPH regenerating system was added to each incubation well to start the reaction. Final incubation volume was 50 μL. The assay plate then was placed back in the 37° C. incubator. After incubation (10 minutes for CYP2D6) for 5 minutes, incubates were quenched by addition of 50 μL 100% acetonitrile containing internal standards (400 ng/mL 13C6-4′-OH-Diclofenac, 20 ng/mL D3-Dextrorphan and 20 ng/mL D4-1′OH-Midazolam). The supernatants were collected for RapidFire/MS/MS analysis.
(§3) RapidFire online solid phase extraction/sample injection system (Agilent) coupled with API4000 triple quadrupole mass spectrometer (AB Sciex) were used for sample analysis. The mobile phase composed of acetonitrile and water supplemented with 0.1% formic acid. A C4 solid phase extraction cartridge is used for sample separation. MS detection is achieved in positive ion MRM mode.
(§4) Peak areas for substrate, metabolite and internal standard are determined using the RapidFire integrator software (version 3.6.12009.12296). Peak area ratios (PAR) of metabolite and internal standard (stable-labelled metabolite) are then calculated. The measurement window for each experiment is then defined:
(§5) PAR (0% activity)=average PAR for all incubations containing concentrated inhibitor;
(§6) Par (100% activity)=average PAR for all incubations containing no inhibitor (DMSO controls);
(§7) % Activity (test inhibitor)=[PAR(test inhibitor)−PAR(0% activity)/PAR(100% activity)−PAR(0% activity)];
(§8) % Inhibition (test inhibitor)=100−% Activity (test inhibitor).
On the technique in general: Liver microsomes are a subcellular fraction often used to study metabolism.

Data set [3] concerns the target T3, CYP3A4 (Homo sapiens, UniProt P08684).
T3 construct: tissue BD-Gentest 452117; host or cells: human liver microsomes
Briefly: CYP inhibition assay in human liver microsome, CYP3A4. The conditions noted are these: percentage inhibition, substrate Midazolam 5 μM. The class given is in vitro ADME. On the procedure: as §1, §2, §3, §4, §5, §6, §7, §8

Experimental findings from patent publication US12421229B2, “Hydropyrido[1,2-α]pyrazine compounds for the treatment of autoimmune disease” (Hoffmann-La Roche Inc., priority 2019, dated 2025) are described below.

T2 sequence (P10635 whole entry): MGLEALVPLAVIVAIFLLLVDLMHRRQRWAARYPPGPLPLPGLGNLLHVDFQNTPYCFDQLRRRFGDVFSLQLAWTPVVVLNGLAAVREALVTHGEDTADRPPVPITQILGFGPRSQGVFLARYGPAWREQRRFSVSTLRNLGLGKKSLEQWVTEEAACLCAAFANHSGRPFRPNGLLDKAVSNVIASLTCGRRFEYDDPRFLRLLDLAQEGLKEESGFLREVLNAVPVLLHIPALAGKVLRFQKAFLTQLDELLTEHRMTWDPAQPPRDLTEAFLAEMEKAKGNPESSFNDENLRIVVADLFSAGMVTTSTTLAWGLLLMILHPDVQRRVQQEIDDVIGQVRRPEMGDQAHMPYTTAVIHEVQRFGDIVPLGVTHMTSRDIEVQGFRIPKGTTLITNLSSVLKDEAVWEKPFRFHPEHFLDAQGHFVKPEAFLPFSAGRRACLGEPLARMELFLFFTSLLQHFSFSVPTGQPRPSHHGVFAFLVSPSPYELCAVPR
T3 sequence (P08684 whole entry): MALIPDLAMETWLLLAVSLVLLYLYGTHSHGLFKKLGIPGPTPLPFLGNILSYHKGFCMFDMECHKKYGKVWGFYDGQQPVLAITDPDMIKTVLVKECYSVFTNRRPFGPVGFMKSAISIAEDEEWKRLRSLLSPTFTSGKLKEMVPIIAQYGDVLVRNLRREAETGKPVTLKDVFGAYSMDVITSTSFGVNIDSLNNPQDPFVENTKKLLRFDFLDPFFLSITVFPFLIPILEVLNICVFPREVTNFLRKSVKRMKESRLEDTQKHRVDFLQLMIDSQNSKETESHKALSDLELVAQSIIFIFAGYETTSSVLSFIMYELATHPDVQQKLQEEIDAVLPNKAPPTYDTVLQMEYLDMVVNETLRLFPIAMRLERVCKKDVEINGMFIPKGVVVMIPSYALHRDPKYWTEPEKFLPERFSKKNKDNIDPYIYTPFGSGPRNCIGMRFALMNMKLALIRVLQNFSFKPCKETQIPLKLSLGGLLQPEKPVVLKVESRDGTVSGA
T1 sequence (Q12809 whole entry): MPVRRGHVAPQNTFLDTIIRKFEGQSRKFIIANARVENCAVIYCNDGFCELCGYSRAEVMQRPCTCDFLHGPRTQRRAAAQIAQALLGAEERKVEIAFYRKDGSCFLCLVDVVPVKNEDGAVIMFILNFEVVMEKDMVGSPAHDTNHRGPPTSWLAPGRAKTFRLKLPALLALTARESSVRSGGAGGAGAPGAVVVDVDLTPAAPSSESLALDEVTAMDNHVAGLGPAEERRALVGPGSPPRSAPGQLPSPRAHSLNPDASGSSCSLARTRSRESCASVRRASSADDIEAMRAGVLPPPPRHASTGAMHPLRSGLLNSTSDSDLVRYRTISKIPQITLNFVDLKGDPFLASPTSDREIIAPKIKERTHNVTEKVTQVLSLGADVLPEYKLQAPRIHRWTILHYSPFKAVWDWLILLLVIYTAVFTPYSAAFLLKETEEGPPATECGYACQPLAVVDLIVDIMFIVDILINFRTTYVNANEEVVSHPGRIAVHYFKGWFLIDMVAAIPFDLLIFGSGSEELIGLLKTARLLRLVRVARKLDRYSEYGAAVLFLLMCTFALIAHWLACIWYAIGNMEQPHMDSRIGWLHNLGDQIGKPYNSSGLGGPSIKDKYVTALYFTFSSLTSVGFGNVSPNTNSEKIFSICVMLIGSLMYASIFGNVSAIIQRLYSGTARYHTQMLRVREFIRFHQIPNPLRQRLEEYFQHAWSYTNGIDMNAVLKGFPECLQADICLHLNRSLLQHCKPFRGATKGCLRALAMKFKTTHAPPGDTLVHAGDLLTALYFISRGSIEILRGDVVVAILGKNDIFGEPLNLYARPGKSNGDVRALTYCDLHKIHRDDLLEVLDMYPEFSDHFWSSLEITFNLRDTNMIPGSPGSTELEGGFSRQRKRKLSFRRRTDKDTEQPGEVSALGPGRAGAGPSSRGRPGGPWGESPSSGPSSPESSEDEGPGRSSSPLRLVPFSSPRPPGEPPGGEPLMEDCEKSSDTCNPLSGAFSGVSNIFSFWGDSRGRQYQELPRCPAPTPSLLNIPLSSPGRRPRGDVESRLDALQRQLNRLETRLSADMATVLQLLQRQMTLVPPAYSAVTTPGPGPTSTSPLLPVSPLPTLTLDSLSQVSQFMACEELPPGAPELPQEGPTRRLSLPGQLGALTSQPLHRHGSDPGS

Broadly, the IC50 is the midpoint of a concentration-inhibition curve. Read a low IC50 as greater potency. As usually defined, the IC20 is the point of the concentration-response curve where the effect stands at 20%. In the case of `CO[C@H]1CN(c2ccc([C@@H]3CCN4[C@@H](C3)CN(c3ccc(C#N)c5ncccc35)C[C@H]4C)cn2)C[C@@H]1N` [Example 6, 5-[(4R,8R,9aS)-8-[6-[(3S,4S)-3-amino-4-methoxy-pyrrolidin-1-yl]-3-pyridyl]-4-methyl-1,3,4,6,7,8,9,9a-octahydropyrido[1,2-a]pyrazin-2-yl]quinoline-8-carbonitrile], in data set [1], the IC50 was over 20 µM, it took 9.2 µM to reach the 20% level (IC20), the “hERG IC20/TLR7 IC50” value is reported as 224.4 and the “hERG IC20/TLR8 IC50” value amounted to 195.7. Further, the “hERG IC20/TLR9 IC50” value in data set [1] was 105.7. Moreover, the “CYP (%) 2D6” value in data set [2] is listed as −12.5%. Besides, the “CYP (%) 3A4” value in data set [3] worked out at 11%.

As to `C[C@@H]1CN(c2ccc(C#N)c3ncccc23)C[C@@H]2C[C@H](c3ccc([C@@H]4CNCCO4)cc3)CCN21` [Example 27, 5-[(4R,8R,9aS)-4-methyl-8-[4-[(2R)-morpholin-2-yl]phenyl]-1,3,4,6,7,8,9,9a-octahydropyrido[1,2-a]pyrazin-2-yl]quinoline-8-carbonitrile], the “CYP (%) 2D6” value in data set [2] is reported as 8%. Also, the “CYP (%) 3A4” value in data set [3] stood at 37%.

On to `C[C@@H]1CN(c2ccc(C#N)c3ncccc23)C[C@@H]2C[C@H](c3ccc(N4C[C@@H](N)[C@@H](F)C4)nc3)CCN21` [Example 19, 5-[(4R,8R,9aS)-8-[6-[(3R,4S)-3-amino-4-fluoro-pyrrolidin-1-yl]-3-pyridyl]-4-methyl-1,3,4,6,7,8,9,9a-octahydropyrido[1,2-a]pyrazin-2-yl]quinoline-8-carbonitrile], for which, in data set [2], the “CYP (%) 2D6” value is reported as −6%. The “CYP (%) 3A4” value in data set [3] is 30%.

As to `C[C@@H]1CN(c2ccc(C#N)c3ncccc23)C[C@@H]2C[C@H](N3CC(c4ccc(N5CCNCC5)cc4)C3)CCN21` [Example 9, 5-[(4R,8R,9aS)-4-methyl-8-[3-(4-piperazin-1-ylphenyl)azetidin-1-yl]-1,3,4,6,7,8,9,9a-octahydropyrido[1,2-a]pyrazin-2-yl]quinoline-8-carbonitrile], in data set [1], the IC50 was over 20 µM, the IC20 was over 10 µM, the “hERG IC20/TLR7 IC50” value was over 370.4 and the “hERG IC20/TLR8 IC50” value is listed as over 277.8. Moreover, the “hERG IC20/TLR9 IC50” value in data set [1] was over 312.5. The “CYP (%) 2D6” value in data set [2] is recorded as −2%. Moreover, the “CYP (%) 3A4” value in data set [3] worked out at 9.5%.

In the case of `CO[C@H]1CN(c2ccc([C@@H]3CCN4[C@@H](C3)CN(c3ccc(C#N)c5ncccc35)C[C@H]4C)cn2)C[C@H]1N` [Example 12, 5-[(4R,8R,9aS)-8-[6-[(3R,4S)-3-amino-4-methoxy-pyrrolidin-1-yl]-3-pyridyl]-4-methyl-1,3,4,6,7,8,9,9a-octahydropyrido[1,2-a]pyrazin-2-yl]quinoline-8-carbonitrile], the “CYP (%) 2D6” value in data set [2] is on record as 0%. In addition, the “CYP (%) 3A4” value in data set [3] was determined as 37.5%.

With `C[C@@H]1CN(c2ccc(C#N)c3ncccc23)C[C@@H]2C[C@@H](Oc3ccc(N4CCNCC4)cn3)CCN21` [Example 11, 5-[(4R,8S,9aS)-4-methyl-8-[(5-piperazin-1-yl-2-pyridyl)oxy]-1,3,4,6,7,8,9,9a-octahydropyrido[1,2-a]pyrazin-2-yl]quinoline-8-carbonitrile], in data set [1], the IC50 is over 20 µM, the IC20 was over 10 µM, the “hERG IC20/TLR7 IC50” value is over 217.4 and the “hERG IC20/TLR8 IC50” value is recorded as over 666.6. The “hERG IC20/TLR9 IC50” value in data set [1] is listed as over 111.1. Further, in data set [2], the “CYP (%) 2D6” value is reported as −24.5%. In addition, in data set [3], the “CYP (%) 3A4” value was 12%.

For `[2H]c1ccc2c(N3C[C@@H]4C[C@H](N5CCN(c6ccncc6)CC5)CCN4[C@H](C)C3)ccc(C#N)c2n1` [Example 37, 5-[(4R,8R,9aS)-4-methyl-8-[4-(4-pyridyl)piperazin-1-yl]-1,3,4,6,7,8,9,9a-octahydropyrido[1,2-a]pyrazin-2-yl]-2-deuterio-quinoline-8-carbonitrile], the “CYP (%) 2D6” value in data set [2] stood at 14.5%. For the same compound, the “CYP (%) 3A4” value in data set [3] amounted to 32.5%.

For the compound `C[C@@H]1CN(c2ccc(C#N)c3ncccc23)C[C@@H]2C[C@H](Nc3ccc([C@H]4CNCCO4)cc3)CCN21` [Example 20, 5-[(4R,8R,9aS)-4-methyl-8-[4-[(2S)-morpholin-2-yl]anilino]-1,3,4,6,7,8,9,9a-octahydropyrido[1,2-a]pyrazin-2-yl]quinoline-8-carbonitrile], in data set [1], the IC50 was over 20 µM, the IC20 was over 10 µM, the “hERG IC20/TLR7 IC50” value was over 769.2 and the “hERG IC20/TLR8 IC50” value was over 200. The “hERG IC20/TLR9 IC50” value in data set [1] is reported as over 200.

Regarding `CO[C@@H]1CN(c2ccc([C@@H]3CCN4[C@@H](C3)CN(c3ccc(C#N)c5ncccc35)C[C@H]4C)cn2)C[C@H]1N` [Example 14, 5-[(4R,8R,9aS)-8-[6-[(3R,4R)-3-amino-4-methoxy-pyrrolidin-1-yl]-3-pyridyl]-4-methyl-1,3,4,6,7,8,9,9a-octahydropyrido[1,2-a]pyrazin-2-yl]quinoline-8-carbonitrile], in data set [2], the “CYP (%) 2D6” value was −0.5%. In data set [3], the “CYP (%) 3A4” value is listed as 19.5%.

Take `[2H]c1ccc2c(N3C[C@@H]4C[C@H](Nc5ccc(C[C@H]6CNCCO6)cc5)CCN4[C@H](C)C3)ccc(C#N)c2n1` [Example 34, 5-[(4R,8R,9aS)-4-methyl-8-[4-[[(2S)-morpholin-2-yl]methyl]anilino]-1,3,4,6,7,8,9,9a-octahydropyrido[1,2-a]pyrazin-2-yl]-2-deuterio-quinoline-8-carbonitrile]: in data set [1], the IC50 is over 20 µM, the IC20 is over 10 µM, the “hERG IC20/TLR7 IC50” value was over 212.7 and the “hERG IC20/TLR8 IC50” value is on record as over 250. The “hERG IC20/TLR9 IC50” value in data set [1] is over 175.4. Also, in data set [2], the “CYP (%) 2D6” value was 2.5%. Besides, the “CYP (%) 3A4” value in data set [3] was 3.5%.

Regarding `C[C@@H]1CN(c2ccc(C#N)c3ncccc23)C[C@@H]2C[C@H](c3ccc(N4CCNCC4)nc3)CCN21` (stereo in doubt) [Example 2, 5-[(4R,8R)-4-methyl-8-(6-piperazin-1-yl-3-pyridyl)-1,3,4,6,7,8,9,9a-octahydropyrido[1,2-a]pyrazin-2-yl]quinoline-8-carbonitrile], the “CYP (%) 2D6” value in data set [2] is on record as −5.5%. Besides, in data set [3], the “CYP (%) 3A4” value came to 38%.

Regarding `C[C@@H]1CN(c2ccc(C#N)c3ncccc23)C[C@@H]2C[C@H](Nc3ccc(C[C@@H]4CNCCO4)cc3)CCN21` [Example 21, 5-[(4R,8R,9aS)-4-methyl-8-[4-[[(2R)-morpholin-2-yl]methyl]anilino]-1,3,4,6,7,8,9,9a-octahydropyrido[1,2-a]pyrazin-2-yl]quinoline-8-carbonitrile], in data set [1], the IC50 is over 20 µM, the IC20 was over 10 µM, the “hERG IC20/TLR7 IC50” value is given as over 500 and the “hERG IC20/TLR8 IC50” value is given as over 185.2. The “hERG IC20/TLR9 IC50” value in data set [1] is reported as over 116.3. Besides, the “CYP (%) 2D6” value in data set [2] was 9%. Besides, the “CYP (%) 3A4” value in data set [3] is given as 15.5%.
